# Experimental data as given in patent US5077296A, “Method for treating equine navicular disease with pentoxifylline, and composition containing pentoxifylline for administrating to horses” (priority 1987, dated 1991).
# Several values for one entry are separate records, joined by “and”; a condition that tells them apart may be missing. Identical values can stand only once.
# Experiments:
# [1] = system: navicular disease; conditions: accidental lacerations or injuries; cited from earlier work
# [2] = system: navicular disease; experiment: Efficacy of oral pentoxifylline in the treatment of navicular disease in horses (6 week lameness study); format: in vivo, horse
# Excerpt: As previously mentioned, it is preferred to administer daily doses of pentoxifylline for a prescribed period of time in order to alleviate lameness caused by navicular disease. […] It is preferred to administer the daily doses tid. In this regard, powder, tablet or capsule formulations, containing between 2-10 gm of pentoxifylline should be administered for this purpose. As previously indicated, the amount of daily doses is dependent on a variety of factors, including the size of the horse being treated.
# The purpose of the following study was to assess the efficacy of pentoxifylline in the treatment of navicular disease in horses; to establish an appropriate dosage and treatment interval, and to identify adverse effects from treatment.
# Twenty-seven horses entered the study between September 1985 and March 1986.
# Pentoxifylline was supplied as an oral powder prepared in individual plastic vials of 2 gm Pentoxifylline mixed with 4 gm icing sugar, to ensure palatability.
# Diagnosis of navicular disease was made using the following criteria:
# 1) history - including clinical and previous treatment history.
# lameness observed at walk and while lunging to the left and to the right.
# 3) diagnostic posterior digital nerve block
# horses not sound following bilateral desensitization of the posterior digital nerves were not admitted into the study
# 4) radiographic examination of confirmation of disease as noted by classical navicular lesions, on a minimum of three views
# Treatment was administered daily for 42 days.
# Horses were characterized as either severely lame, moderately lame, or slightly lame, as follows:
# Treatment response was classified as excellent, good, fair, or poor.
# Soundness was subjectively rated by the veterinarian on a percent basis. Percent soundness at the study's onset was subtracted from percent soundness at the study's conclusion, and this difference was plotted as a histogram (graph 2), to show the magnitude of improvement with the 6 week course of treatment. At week 4 there was an average of 57% improvement. For instance, horse number 3 was rated as 25% sound at the onset of the study, and 100% sound after six weeks, yielding an improvement of 75%.
# [3] = system: navicular disease; experiment: Long term efficacy: follow up evaluation of soundness after termination of the 6 week treatment; format: in vivo, horse
# Excerpt: Ten horses received a further follow up evaluation after termination of the 6 week treatment period. The horses are listed below, along with the date of visit (weeks post-initiation of study) and the soundness evaluation.
# [4] = in vivo
# Excerpt: (§1) Follow-up observations occurred weekly during the six week treatment period, and for a final time approximately 4 weeks after the 6 week treatment period was over. The follow-up visits consisted of a lameness evaluation on the lunge line, at the walk and at rest. Owners/trainers were asked to report any side effects observed that may or may not have been related to Pentoxifylline therapy, and any other problems that had arisen during the week, concurrent medications administered for other causes, and the horse's progress while being exercised. Blood samples were drawn prior to first treatment, at 3 weeks, and at 6 weeks for routine hematological and clinical chemistry profiles. Samples were drawn prior to lameness examination after the horse had been resting quietly in the stall. Most samples were drawn early in the afternoon, and were immediately submitted to Metro Animal Laboratories, Bloor Street, Toronto.
# [5] = Side effects during the study
# Excerpt: as §1
# [6] = cited from earlier work
# [7] = duration of lameness 2 years-5 years (5)
# [8] = duration of lameness 5 years (4)
# [9] = duration of lameness 6 months (7)
# [10] = duration of lameness <6 months, >2 years (11)
# [11] = lameness at onset moderate (11)
structure (smiles),measurement,setting,value
CC(=O)CC(c1ccccc1)c1c(O)c2ccccc2oc1=O (racemic) [Warfarin],safety disadvantage,[1],can be fatal due to hemmorrhage
"CC(=O)CCCCn1c(=O)c2c(ncn2C)n(C)c1=O [pentoxifylline, 1-(5-oxohexyl)-3,7-dimethylxanthine]",response over time,[2]; 1 week,evident at 1 week
same,response over time,[2]; 2 and 3 weeks,marked at 2 and 3 weeks
same,response at dose,[2]; 2 gm bid,not considered consistently optimal
same,response at dose,[2]; 6 gram dosage divided tid,achieved the best results
same,response over time,[2]; between 4 and 6 weeks,did not regress between 4 and 6 weeks
same,"excellent responses, % of horses","[2]; cases of greater than 5 years duration, 4 horses",50%
same,"excellent responses, number of horses","[2]; cases of greater than 5 years duration, out of 4 horses",2 horses
same,effect on navicular lameness,[2]; daily doses between 6 gm and 30 gm for 4-6 weeks,effective in completely eliminating navicular lameness
same,"Response excellent, number of horses",[2]; [7],2 horses
same,"Response good, number of horses",[2]; [7],1 horses
same,"Response poor, number of horses",[2]; [7],1 horses
same,"Response excellent, number of horses",[2]; [8],2 horses
same,"Response fair, number of horses",[2]; [8],1 horses
same,"Response good, number of horses",[2]; [8],1 horses
same,"Response excellent, number of horses",[2]; [9],4 horses
same,"Response good, number of horses",[2]; [9],1 horses
same,"Response poor, number of horses",[2]; [9],1 horses
same,"Response excellent, number of horses",[2]; [10],7 horses
same,"Response fair, number of horses",[2]; [10],1 horses
same,"Response good, number of horses",[2]; [10],2 horses
same,"Response poor, number of horses",[2]; [10],1 horses
same,"excellent responses, % of horses","[2]; duration of lameness up to two years, 18 horses",61%
same,"excellent responses, number of horses","[2]; duration of lameness up to two years, out of 18 horses",11 horses
same,treatment response,"[2]; horse #9 (It's Casual), six week course, previous bilateral neurectomy",never showed significant improvement
same,treatment assessment,[2]; horse #15 (Cheska),refractory to pentoxifylline treatment
same,evaluated sounder,"[2]; horse #15 (Cheska), end of 4 weeks, dosage increased to 2 gm tid",90%
same,treatment response,"[2]; horse #15 (Cheska), first 3 weeks, 2 gm bid, drug not administered properly",virtually no response
same,lameness,"[2]; horse #15 (Cheska), weeks 5 and 6, after jumping in 4th week",as lame as at the beginning
same,treatment assessment,"[2]; horse #18 (Molson), irregular treatment",refractory to treatment
same,treatment response,"[2]; horse #18 (Molson), week 3 and week 5",marked improvement
same,lameness,"[2]; horse #18 (Molson), week 6, inconsistent drug administration",as lame as at the onset of the study
same,percent soundness after six weeks,"[2]; horse number 3, 25% sound at onset",100%
same,improvement in percent soundness,"[2]; horse number 3, six weeks vs onset",75%
same,response by lameness at onset,[2]; horses with moderate lameness,preponderance of excellent responses
same,"Response excellent, number of horses",[2]; [11],7 horses
same,"Response fair, number of horses",[2]; [11],2 horses
same,"Response good, number of horses",[2]; [11],1 horses
same,"Response good, number of horses",[2]; lameness at onset severe (8),1 horses
same,"Response poor, number of horses",[2]; lameness at onset severe (8),3 horses
same,"Response good, number of horses",[2]; lameness at onset slight (2),2 horses
same,"Response excellent, number of horses",[2]; lameness at onset slight-moderate (6),6 horses
same,"Response fair, number of horses","[2]; n = 25, oral, 42 days",2 horses
same,"Response good, number of horses","[2]; n = 25, oral, 42 days",5 horses
same,"Response poor, number of horses","[2]; n = 25, oral, 42 days",3 horses
same,"Response excellent, number of horses","[2]; n = 25, oral, 42 days, 2 gm bid or tid",15 horses
same,"Response excellent, % of horses","[2]; oral, 4 to 6 week treatment",63%
same,"Response fair, % of horses","[2]; oral, 4 to 6 week treatment",8%
same,"Response good, % of horses","[2]; oral, 4 to 6 week treatment",20% and 17%
same,"Response poor, % of horses","[2]; oral, 42 days",13%
same,time of maximal response,"[2]; response over time, graph 1",4 weeks
same,effect on lameness of navicular disease,[2]; varying severity and duration,effective in alleviating the lameness
same,average improvement in percent soundness,"[2]; week 4, subjective rating by veterinarian, difference from onset",57%
same,horses judged to be sore again after cessation of treatment,"[3]; 2 weeks after cessation, Innovator, Capital Gains, Ensign",Three horses
same,follow up soundness,"[3]; horse 1 Jake, 9 weeks post-initiation",80 % sound
same,follow up soundness,"[3]; horse 1 Jake, 11 weeks, being ridden",still sound
same,follow up soundness,"[3]; horse 1 Jake, 20 weeks, being ridden",100 % sound
same,Status,"[3]; horse 1 Jake, greater than 6 weeks",Improved
same,Status,"[3]; horse 2 Lucky Lion, 2 gm once per day maintenance at 10 weeks",Improved
same,Status,[3]; horse 3 Remeny,Improved
same,follow up soundness,"[3]; horse 3 Remeny, 12 weeks",hunting sound
same,follow up soundness,"[3]; horse 3 Remeny, 18 weeks",very sound
same,Status,[3]; horse 4 Ensign,Same
same,follow up soundness,"[3]; horse 4 Ensign, 8 weeks",sore RF
same,follow up soundness,"[3]; horse 4 Ensign, 11 weeks, when given 2 gm/day",sound again
same,Status,[3]; horse 5 Wessex,Improved
same,follow up soundness,"[3]; horse 5 Wessex, 15 weeks, compared with end of the 6 weeks",sounder than
same,Status,[3]; horse 11 Capital Gains,Improved
same,follow up soundness,"[3]; horse 11 Capital Gains, 8 weeks, without drug",less sound
same,Status,[3]; horse 13 Peaches 'N Cream,Same
same,follow up soundness,"[3]; horse 13 Peaches 'N Cream, 11 weeks, compared with when entered study",as sound
same,Status,[3]; horse 14 Cash in McCue,Improved
same,follow up soundness,"[3]; horse 14 Cash in McCue, 12 weeks",100 % sound
same,Status,[3]; horse 16 B. E. Skipper,Improved
same,follow up soundness in field,"[3]; horse 16 B. E. Skipper, 11 weeks, looks sound in field",100 % sound
same,follow up soundness,"[3]; horse 16 B. E. Skipper, 11 weeks, riding again",90 % sounder
same,Status,[3]; horse 20 Innovator,Worse
same,follow up soundness to LT,"[3]; horse 20 Innovator, 7 weeks",80 % sounder
same,follow up soundness to RT,"[3]; horse 20 Innovator, 7 weeks",90 % sounder
same,follow up lameness,"[3]; horse 20 Innovator, 9 weeks, compared with before treatment",as lame at 9 weeks as he had been prior to treatment
same,horses considered sounder than at the end of the 6 week treatment period,[3]; of 10 horses followed up,Seven of these 10 horses
same,pattern when drug administration ceased,[3]; other horses,regressed rapidly when treatment ended
same,pattern when drug administration ceased,[3]; some cases,maintained the improvement noted at 6 weeks
same,Baso mean,[4],0.5%
same,Cl mean,[4],98.9 mmol/L
same,Clinical chemistry values vs equine reference range,[4],within the reference range for the equine species
same,Hematology values vs normal limits,[4],within normal limits throughout the study
same,Mean clinical chemistry values vs baseline,[4],did not differ significantly
same,Number of horses with platelets increased since baseline,[4],20 horses
same,Platelets increase,[4],"4,520"
same,clinical effect on blood chemistry,[4],no clinical effect
same,horses with lower platelet count at week 6 than at week 3,[4],13 horses
same,Sweating episodes,"[5]; horse 14 Cash in McCue, after 2 weeks",5 episodes
same,"Stocked up, number of horses","[5]; horse 15 Cheska, RF at week 6",1 horses
same,"Colic, number of horses","[5]; horse 23 Greek Anthem, between weeks 2 and 3, previous history of colic",1 horses
same,"Sweating, number of horses",[5]; horses 14 and 20,2 horses
same,"Colic, relation to drug",[5]; in vivo,unrelated
same,"Stocked up, relation to drug",[5]; in vivo,unrelated
same,harmful side effects,[5]; in vivo,have not been identified
same,horses with unusual occurrences,[5]; in vivo,Four horses
same,instances judged drug-related side effect,[5]; throughout the study,1
same,Sweating in humans,[6]; human side effect,occasional human side effect
same,lag period to maximum response in man,[6]; lag in horses said to be similar,two week period
